This note sets out measurements from patent publication US10081635B2, “Substituted N-(pyrrolidine-3-yl)-7H-pyrrolo[2,3-D]pyrimidine-4-amine as janus kinase inhibitor” (YANG JI CHEMICAL CO., LTD., priority 2014, dated 2018).

Structures are written as SMILES.

What all share (format): biochemical
For one test, the target named is Human JAK1 (Homo sapiens (Human), UniProt P23458). Kind of test: In vitro kinase inhibition test, JAK1 (33P-ATP filter scintillation). Particulars: compound at 1 uM; read-out: JAK1 kinase-phosphorylation inhibitory level (% inhibition). The protocol:
(§1) 1. In Vitro Kinase Inhibition Test
(§2) Kinases used were human-derived JAK1, JAK2, JAK3, and TYK2 (Millipore, Germany). Each of these kinases was diluted with a suitable buffer solution as described below, and then mixed with reagents.
Tris(hydroxymethyl)aminomethane (TRIS) and ethylenediaminetetraacetic acid (EDTA) were dissolved in distilled water at a concentration of 20 mM and 0.2 mM, respectively, and 100 uL of β-mercaptoethanol, 10 uL of Brij-35™, and 5 mL of glycerol, each per 100 mL of the solution, were added to the solution, thereby preparing a JAK1 dilution buffer solution.
(§3) Each compound was dissolved in a 100% DMSO solution at a 50 uM concentration. This solution was reacted with reagents in wells on a 96-well plate to reach a final concentration of 1 uM. Detailed experimental methods for each kinase are described below.
After reaction for about 40 minutes at room temperature, the reaction was stopped by adding 5 uL of a 3% (v/v) phosphoric acid solution. […] The methanol drying is a drying process using an azeotropic effect, wherein methanol is added into an aqueous solution for drying.
(§4) In Tables 5 and 6, the numbers in the “Example” column, which are identification numbers of the examples, indicate the compounds synthesized in the corresponding examples, the values in the “JAK1”, “JAK2”, “JAK3”, and “TYK2” columns represent kinase-phosphorylation inhibitory levels as a percentage (%) of the compounds synthesized in the corresponding examples at a 1 uM concentration. In Tables 5 and 6, negative values substantially indicate no inhibitory effect.
(§5) The inhibitory levels (% inhibition) represent a percentage of reduction in phosphorylation activity in each test group with respect to the phosphorylation activity of a corresponding kinase in a negative control group lacking any of the compounds synthesized in the examples. % inhibition=[(Scintillation value of Test compound non-treatment group−Scintillation value of Test compound treatment group)/(Scintillation value of Test compound non-treatment group)]×100

The target of the next test is Human JAK2 (Homo sapiens (Human), UniProt O60674). Kind of test: In vitro kinase inhibition test, JAK2 (33P-ATP filter scintillation). The following applies: compound at 1 uM; read-out: JAK2 kinase-phosphorylation inhibitory level (% inhibition). The protocol: as §1, §2
(§6) 3-morpholinopropane-1-sulfonic acid (MOPS) and EDTA were dissolved in distilled water at a concentration of 20 mM and 1 mM, respectively, and 100 uL of β-mercaptoethanol, 10 uL of Brij-35™, 5 mL of glycerol, and 100 mg of bovine serum albumin (BSA), each per 100 mL of the solution, were added to the solution, thereby preparing a JAK2, JAK3, and TYK2 dilution buffer solution.
as §3
(§7) After reaction for about 40 minutes at room temperature, the reaction was stopped by adding 5 uL of a 3% (v/v) phosphoric acid solution.
as §4, §5

Another test concerns the target Human JAK3 (Homo sapiens (Human), UniProt P52333). Kind of test: In vitro kinase inhibition test, JAK3 (33P-ATP filter scintillation). Particulars: compound at 1 uM; read-out: JAK3 kinase-phosphorylation inhibitory level (% inhibition). The protocol: as §1, §2, §6, §3, §7, §4, §5
Another test concerns the target Human TYK2 (Homo sapiens (Human), UniProt P29597). Kind of test: In vitro kinase inhibition test, TYK2 (33P-ATP filter scintillation). Particulars: compound at 1 uM; read-out: TYK2 kinase-phosphorylation inhibitory level (% inhibition). The procedure:
as §1, §2, §6, §3, §7, §4, §5

Sequence of Human TYK2 (P29597 whole entry): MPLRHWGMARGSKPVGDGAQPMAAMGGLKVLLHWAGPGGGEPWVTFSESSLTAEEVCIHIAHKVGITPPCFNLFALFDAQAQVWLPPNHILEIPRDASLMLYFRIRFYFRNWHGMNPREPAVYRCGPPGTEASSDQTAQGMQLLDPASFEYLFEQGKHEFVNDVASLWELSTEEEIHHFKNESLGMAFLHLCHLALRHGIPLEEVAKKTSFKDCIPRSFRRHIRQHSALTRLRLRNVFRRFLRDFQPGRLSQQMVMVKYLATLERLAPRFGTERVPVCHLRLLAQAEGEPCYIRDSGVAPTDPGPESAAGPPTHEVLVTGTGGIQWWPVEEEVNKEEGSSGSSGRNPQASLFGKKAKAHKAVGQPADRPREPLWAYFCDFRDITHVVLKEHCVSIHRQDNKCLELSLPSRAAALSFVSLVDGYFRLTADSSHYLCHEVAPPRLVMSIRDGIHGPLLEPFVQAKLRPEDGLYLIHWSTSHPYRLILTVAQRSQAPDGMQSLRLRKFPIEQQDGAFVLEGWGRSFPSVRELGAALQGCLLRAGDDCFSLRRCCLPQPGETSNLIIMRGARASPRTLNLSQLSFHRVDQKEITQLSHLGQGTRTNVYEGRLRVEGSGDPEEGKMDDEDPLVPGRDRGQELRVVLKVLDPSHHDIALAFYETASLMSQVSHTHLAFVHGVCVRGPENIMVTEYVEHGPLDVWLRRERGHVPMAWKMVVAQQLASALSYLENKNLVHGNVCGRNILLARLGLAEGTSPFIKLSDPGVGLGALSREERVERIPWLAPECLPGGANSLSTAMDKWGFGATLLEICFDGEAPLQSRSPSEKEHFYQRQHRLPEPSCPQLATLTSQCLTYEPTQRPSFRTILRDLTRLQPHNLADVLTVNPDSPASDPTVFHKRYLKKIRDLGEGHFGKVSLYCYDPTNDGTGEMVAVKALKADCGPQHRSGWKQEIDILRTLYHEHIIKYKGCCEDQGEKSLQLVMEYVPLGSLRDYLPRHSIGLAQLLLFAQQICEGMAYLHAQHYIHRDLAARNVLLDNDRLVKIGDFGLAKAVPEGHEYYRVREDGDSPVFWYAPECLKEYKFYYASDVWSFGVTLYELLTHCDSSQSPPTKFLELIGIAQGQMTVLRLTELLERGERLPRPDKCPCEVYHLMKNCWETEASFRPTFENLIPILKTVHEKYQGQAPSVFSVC
Sequence of Human JAK2 (O60674 whole entry): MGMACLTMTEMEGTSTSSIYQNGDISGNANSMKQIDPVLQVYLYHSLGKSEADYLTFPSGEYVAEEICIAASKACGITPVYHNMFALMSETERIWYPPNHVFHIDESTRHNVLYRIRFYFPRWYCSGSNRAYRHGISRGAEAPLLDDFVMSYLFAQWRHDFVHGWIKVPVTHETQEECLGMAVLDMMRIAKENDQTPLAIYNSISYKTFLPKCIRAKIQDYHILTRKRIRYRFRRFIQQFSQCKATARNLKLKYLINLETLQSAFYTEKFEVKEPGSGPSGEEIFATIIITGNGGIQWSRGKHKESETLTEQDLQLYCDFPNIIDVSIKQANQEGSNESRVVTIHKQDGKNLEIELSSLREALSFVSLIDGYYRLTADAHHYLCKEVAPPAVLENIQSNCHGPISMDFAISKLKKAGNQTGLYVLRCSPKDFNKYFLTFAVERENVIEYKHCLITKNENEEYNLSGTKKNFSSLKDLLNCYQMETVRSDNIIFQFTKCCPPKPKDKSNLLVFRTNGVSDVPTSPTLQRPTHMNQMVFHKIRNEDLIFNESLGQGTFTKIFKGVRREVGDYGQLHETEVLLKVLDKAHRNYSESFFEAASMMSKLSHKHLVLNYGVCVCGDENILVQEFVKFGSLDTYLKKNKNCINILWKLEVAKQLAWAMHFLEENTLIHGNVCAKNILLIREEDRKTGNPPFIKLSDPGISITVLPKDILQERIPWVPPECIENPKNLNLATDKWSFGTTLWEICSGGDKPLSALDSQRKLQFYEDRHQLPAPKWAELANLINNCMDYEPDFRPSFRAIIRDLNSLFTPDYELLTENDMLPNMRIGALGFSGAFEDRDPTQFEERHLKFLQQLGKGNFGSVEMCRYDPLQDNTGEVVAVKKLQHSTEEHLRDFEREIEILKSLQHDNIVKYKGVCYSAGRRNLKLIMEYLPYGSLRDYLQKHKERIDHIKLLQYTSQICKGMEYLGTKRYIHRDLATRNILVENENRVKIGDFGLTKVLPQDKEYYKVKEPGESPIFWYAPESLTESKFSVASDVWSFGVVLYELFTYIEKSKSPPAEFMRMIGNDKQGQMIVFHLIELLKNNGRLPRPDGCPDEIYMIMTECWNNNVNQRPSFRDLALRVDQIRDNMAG
Sequence of Human JAK1 (P23458 whole entry): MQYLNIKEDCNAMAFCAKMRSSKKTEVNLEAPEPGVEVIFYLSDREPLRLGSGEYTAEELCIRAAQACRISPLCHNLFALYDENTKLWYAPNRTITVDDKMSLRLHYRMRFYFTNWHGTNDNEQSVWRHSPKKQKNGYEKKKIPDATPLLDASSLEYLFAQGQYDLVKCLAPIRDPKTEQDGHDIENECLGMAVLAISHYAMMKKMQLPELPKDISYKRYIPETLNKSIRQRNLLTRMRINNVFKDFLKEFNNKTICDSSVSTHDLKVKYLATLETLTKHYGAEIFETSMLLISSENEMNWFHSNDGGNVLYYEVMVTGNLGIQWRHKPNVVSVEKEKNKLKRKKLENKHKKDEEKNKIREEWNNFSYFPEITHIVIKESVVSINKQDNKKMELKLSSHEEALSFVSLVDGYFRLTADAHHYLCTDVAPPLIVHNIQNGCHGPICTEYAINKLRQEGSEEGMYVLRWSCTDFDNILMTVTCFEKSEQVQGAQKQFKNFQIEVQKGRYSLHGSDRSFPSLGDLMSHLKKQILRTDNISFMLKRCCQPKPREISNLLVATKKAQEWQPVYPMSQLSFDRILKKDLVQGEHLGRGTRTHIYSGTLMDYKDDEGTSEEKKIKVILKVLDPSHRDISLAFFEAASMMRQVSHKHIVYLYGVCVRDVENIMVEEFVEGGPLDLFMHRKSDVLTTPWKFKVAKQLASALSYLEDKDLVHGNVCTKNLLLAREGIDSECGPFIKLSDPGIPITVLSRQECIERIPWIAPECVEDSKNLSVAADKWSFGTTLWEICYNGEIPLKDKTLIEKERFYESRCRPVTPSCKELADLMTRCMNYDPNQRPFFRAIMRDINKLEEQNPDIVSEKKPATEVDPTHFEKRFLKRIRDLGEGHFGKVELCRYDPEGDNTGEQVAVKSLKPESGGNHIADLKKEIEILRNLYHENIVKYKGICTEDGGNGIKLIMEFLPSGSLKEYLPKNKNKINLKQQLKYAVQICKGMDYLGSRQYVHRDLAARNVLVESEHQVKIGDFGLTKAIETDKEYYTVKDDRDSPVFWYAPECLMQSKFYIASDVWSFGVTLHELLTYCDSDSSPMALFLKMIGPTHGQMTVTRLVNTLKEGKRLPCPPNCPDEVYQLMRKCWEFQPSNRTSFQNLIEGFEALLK
Sequence of Human JAK3 (P52333 whole entry): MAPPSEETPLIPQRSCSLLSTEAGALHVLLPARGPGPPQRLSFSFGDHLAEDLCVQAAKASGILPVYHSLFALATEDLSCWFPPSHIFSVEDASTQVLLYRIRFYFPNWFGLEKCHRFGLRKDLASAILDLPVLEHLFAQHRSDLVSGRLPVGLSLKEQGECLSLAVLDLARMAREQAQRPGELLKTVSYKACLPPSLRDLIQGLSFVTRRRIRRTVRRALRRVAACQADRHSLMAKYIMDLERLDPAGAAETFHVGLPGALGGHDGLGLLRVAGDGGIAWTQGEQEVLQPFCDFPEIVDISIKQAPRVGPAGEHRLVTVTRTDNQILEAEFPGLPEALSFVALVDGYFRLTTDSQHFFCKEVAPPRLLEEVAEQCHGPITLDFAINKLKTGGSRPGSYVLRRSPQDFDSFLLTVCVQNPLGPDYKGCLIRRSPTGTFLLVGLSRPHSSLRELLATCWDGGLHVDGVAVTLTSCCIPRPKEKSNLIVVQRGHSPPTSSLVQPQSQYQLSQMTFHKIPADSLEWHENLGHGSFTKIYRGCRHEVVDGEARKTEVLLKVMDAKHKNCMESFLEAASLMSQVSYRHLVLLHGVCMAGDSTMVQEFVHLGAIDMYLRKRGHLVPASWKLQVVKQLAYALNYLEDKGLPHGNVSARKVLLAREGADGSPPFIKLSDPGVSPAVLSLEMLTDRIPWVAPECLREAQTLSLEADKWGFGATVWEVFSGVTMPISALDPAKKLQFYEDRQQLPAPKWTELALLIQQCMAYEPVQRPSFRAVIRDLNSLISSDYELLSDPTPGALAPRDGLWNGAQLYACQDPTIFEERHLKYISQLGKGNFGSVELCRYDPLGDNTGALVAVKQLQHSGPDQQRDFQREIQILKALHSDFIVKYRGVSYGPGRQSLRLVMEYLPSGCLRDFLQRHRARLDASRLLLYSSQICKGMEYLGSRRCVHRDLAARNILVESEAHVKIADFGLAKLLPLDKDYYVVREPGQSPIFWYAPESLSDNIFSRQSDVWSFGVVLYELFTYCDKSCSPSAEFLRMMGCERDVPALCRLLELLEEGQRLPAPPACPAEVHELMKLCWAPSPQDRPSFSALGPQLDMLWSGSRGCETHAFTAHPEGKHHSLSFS

Take `CN(c1ncnc2[nH]ccc12)[C@H]1CN(S(=O)(=O)c2ccc(F)cc2)CC12CC2` [Example 39, (R)-N-(5-((4-fluorophenyl)sulfonyl)-5-azaspiro[2.4]heptan-7-yl)-N-methyl-7H-pyrrolo[2,3-d]pyrimidin-4-amine]: the inhibition at 1 µM at Human JAK1 amounted to 99%; on Human JAK2 it was 95%; at Human JAK3 it was 65%; on Human TYK2, 93%.
As to `CN(c1ncnc2[nH]ccc12)[C@H]1CN(S(=O)(=O)c2ccccc2C#N)CC12CC2` [Example 40, (R)-2-((7-(methyl(7H-pyrrolo[2,3-d]pyrimidin-4-yl)amino)-5-azaspiro[2.4]heptan-5-yl)sulfonyl)benzonitrile], the inhibition at 1 µM on Human JAK1 amounted to 94%; on Human JAK2, 64%; on Human JAK3 it was 47%; on Human TYK2 it was 72%.
`CN(c1ncnc2[nH]ccc12)[C@H]1CN(S(=O)(=O)c2ccc(C#N)cc2)CC12CC2` [Example 42, (R)-4-((7-(methyl(7H-pyrrolo[2,3-d]pyrimidin-4-yl)amino)-5-azaspiro[2.4]heptan-5-yl)sulfonyl)benzonitrile]: the inhibition at 1 µM at Human JAK1 amounted to 97%; on Human JAK2, 49%; at Human JAK3 it was 33%; on Human TYK2 it was 68%.
For `CN(c1ncnc2[nH]ccc12)[C@H]1CN(S(=O)(=O)c2ccccc2[N+](=O)[O-])CC12CC2` [Example 43, (R)-N-methyl-N-(5-((2-nitrophenyl)sulfonyl)-5-azaspiro[2.4]heptan-7-yl)-7H-pyrrolo[2,3-d]pyrimidin-4-amine], the inhibition at 1 µM at Human JAK1 was 97%; on Human JAK2 it was 70%; at Human JAK3 it was 75%; at Human TYK2 it was 78%.
`CN(c1ncnc2[nH]ccc12)[C@H]1CN(S(=O)(=O)c2cccc([N+](=O)[O-])c2)CC12CC2` [Example 44, (R)-N-methyl-N-(5-((3-nitrophenyl)sulfonyl)-5-azaspiro[2.4]heptan-7-yl)-7H-pyrrolo[2,3-d]pyrimidin-4-amine]: the inhibition at 1 µM worked out at 100% at Human JAK1, 96% on Human JAK2, 96% at Human JAK3 and 98% at Human TYK2.
With `CN(c1ncnc2[nH]ccc12)[C@H]1CN(S(=O)(=O)c2ccc([N+](=O)[O-])cc2)CC12CC2` [Example 45, (R)-N-methyl-N-(5-((4-nitrophenyl)sulfonyl)-5-azaspiro[2.4]heptan-7-yl)-7H-pyrrolo[2,3-d]pyrimidin-4-amine], the inhibition at 1 µM at Human JAK1 worked out at 100%; at Human JAK2, 84%; at Human JAK3, 60%; at Human TYK2, 88%.
On the same counts, the results for `Cc1cccc(S(=O)(=O)N2C[C@H](N(C)c3ncnc4[nH]ccc34)C3(CC3)C2)c1` [Example 46, (R)-N-methyl-N-(5-(m-tolylsulfonyl)-5-azaspiro[2.4]heptan-7-yl)-7H-pyrrolo[2,3-d]pyrimidin-4-amine] are 98%, 81%, 62% and 92%.
Turning to `COc1ccc(S(=O)(=O)N2C[C@H](N(C)c3ncnc4[nH]ccc34)C3(CC3)C2)cc1` [Example 47, (R)-N-(5-((4-methoxyphenyl)sulfonyl)-5-azaspiro[2.4]heptan-7-yl)-N-methyl-7H-pyrrolo[2,3-d]pyrimidin-4-amine], the inhibition at 1 µM at Human JAK1 amounted to 99%; at Human JAK2, 69%; at Human JAK3 it was 39%; at Human TYK2, 71%.
Take `CN(c1ncnc2[nH]ccc12)[C@H]1CN(S(=O)(=O)c2ccc(C(F)(F)F)cc2)CC12CC2` [Example 48, (R)-N-methyl-N-(5-((4-(trifluoromethyl)phenyl)sulfonyl)-5-azaspiro[2.4]heptan-7-yl)-7H-pyrrolo[2,3-d]pyrimidin-4-amine]: the inhibition at 1 µM came to 98% on Human JAK1, 36% at Human JAK2, 28% on Human JAK3 and 66% at Human TYK2.
Consider `CN(c1ncnc2[nH]ccc12)[C@H]1CN(S(=O)(=O)c2ccc3ccccc3c2)CC12CC2` [Example 49, (R)-N-methyl-N-(5-(naphthalen-2-ylsulfonyI)-5-azaspiro[2.4]heptan-7-yl)-7H-pyrrolo[2,3-d]pyrimidin-4-amine], for which the inhibition at 1 µM came to 98% on Human JAK1, 65% on Human JAK2, 55% at Human JAK3 and 75% at Human TYK2.
As to `CN(c1ncnc2[nH]ccc12)[C@H]1CN(S(=O)(=O)N2CCCCC2)CC12CC2` [Example 50, (R)-N-methyl-N-(5-(piperidin-1-ylsulfonyl)-5-azaspiro[2.4]heptan-7-yl)-7H-pyrrolo[2,3-d]pyrimidin-4-amine], the inhibition at 1 µM at Human JAK1 came to 98%; at Human JAK2, 56%; on Human JAK3, 60%; on Human TYK2, 81%.
Consider `CN(c1ncnc2[nH]ccc12)[C@H]1CN(S(=O)(=O)N2CCOCC2)CC12CC2` [Example 51, (R)-N-methyl-N-(5-(morpholinosulfonyl)-5-azaspiro[2.4]heptan-7-yl)-7H-pyrrolo[2,3-d]pyrimidin-4-amine], for which the inhibition at 1 µM at Human JAK1 was 97%; at Human JAK2, 60%; on Human JAK3 it was 49%; at Human TYK2, 69%.
With `CCC(=O)N1CC(N(C)c2ncnc3[nH]ccc23)C2(CC2)C1` (stereo not drawn) [Example 52, 1-(7-(methyl(7H-pyrrolo[2,3-d]pyrimidin-4-yl)amino)-5-azaspiro[2.4]heptan-5-yl)propan-1-one], the inhibition at 1 µM is 58% at Human JAK1, -22% on Human JAK2, 17% at Human JAK3 and 20% at Human TYK2.
For `COCC(=O)N1CC(N(C)c2ncnc3[nH]ccc23)C2(CC2)C1` (stereo not drawn) [Example 53, 2-methoxy-1-(7-(methyl(7H-pyrrolo[2,3-d]pyrimidin-4-yl)amino)-5-azaspiro[2.4]heptan-5-yl)ethan-1-one], the inhibition at 1 µM at Human JAK1 is 76%; at Human JAK2, -18%; at Human JAK3, 3%; on Human TYK2, 7%.
In the case of `CN(c1ncnc2[nH]ccc12)C1CN(C(=O)CN=[N+]=[N-])CC12CC2` (stereo not drawn) [Example 54, 2-azido-1-(7-(methyl(7H-pyrrolo[2,3-d]pyrimidin-4-yl)amino)-5-azaspiro[2.4]heptan-5-yl)ethan-1-one], the inhibition at 1 µM is 94% on Human JAK1, 60% on Human JAK2, 73% at Human JAK3 and 72% at Human TYK2.
For `CC(=O)NCC(=O)N1CC(N(C)c2ncnc3[nH]ccc23)C2(CC2)C1` (stereo not drawn) [Example 56, N-(2-(7-(methyl(7H-pyrrolo[2,3-d]pyrimidin-4-yl)amino)-5-azaspiro[2.4]heptan-5-yl)-2-oxoethyl)acetamide], the inhibition at 1 µM is 9% on Human JAK1, -37% on Human JAK2, 9% on Human JAK3 and -10% on Human TYK2.
Consider `CNC(=O)CC(=O)N1CC(N(C)c2ncnc3[nH]ccc23)C2(CC2)C1` (stereo not drawn) [Example 57, N-methyl-3-(7-(methyl(7H-pyrrolo[2,3-d]pyrimidin-4-yl)amino)-5-azaspiro[2.4]heptan-5-yl)-3-oxopropanamide], for which the inhibition at 1 µM on Human JAK1 is 55%; on Human JAK2 it was 7%; on Human JAK3, -9%; at Human TYK2, 11%.
On to `CN(c1ncnc2[nH]ccc12)C1CN(C(=O)CCN)CC12CC2` (stereo not drawn) [Example 58, 3-amino-1-(7-(methyl(7H-pyrrolo[2,3-d]pyrimidin-4-yl)amino)-5-azaspiro[2.4]heptan-5-yl)propan-1-one], for which the inhibition at 1 µM at Human JAK1 was 34%; at Human JAK2, 2%; on Human JAK3 it was -9%; on Human TYK2 it was -4%.

Usually inhibition stands for the change of the read-out against control, counted positive when it falls.
